Numbers after ± are expanded uncertainties.
Assay: xn = mol fraction of the nth substance listed
Conditions: Liquid, Vibrating tube method

Structure (SMILES): CCCCCCCCCC [decane] + CCCCCCCC
- mass density (343.12 K, 23000 kPa, x2 = 0.7736): 693.03 ± 0.56 kg/m3
- mass density (343.12 K, 24000 kPa, x2 = 0.2801): 707.17 ± 0.55 kg/m3
- mass density (343.12 K, 24000 kPa, x2 = 0.5314): 700.89 ± 0.56 kg/m3
- mass density (343.12 K, 24000 kPa, x2 = 0.7736): 693.84 ± 0.56 kg/m3
- mass density (343.12 K, 25000 kPa, x2 = 0.2801): 707.92 ± 0.55 kg/m3
- mass density (343.12 K, 25000 kPa, x2 = 0.5314): 701.69 ± 0.56 kg/m3
- mass density (343.12 K, 25000 kPa, x2 = 0.7736): 694.61 ± 0.57 kg/m3
- mass density (343.13 K, 1000 kPa, x2 = 0.9623): 664.48 ± 0.42 kg/m3
- mass density (343.13 K, 2000 kPa, x2 = 0.9623): 665.59 ± 0.43 kg/m3
- mass density (343.13 K, 3000 kPa, x2 = 0.9623): 666.77 ± 0.43 kg/m3
- mass density (343.13 K, 4000 kPa, x2 = 0.9623): 667.86 ± 0.44 kg/m3
- mass density (343.13 K, 5000 kPa, x2 = 0.9623): 668.95 ± 0.44 kg/m3
- mass density (343.13 K, 6000 kPa, x2 = 0.9623): 670.06 ± 0.45 kg/m3
- mass density (343.13 K, 7000 kPa, x2 = 0.9623): 671.17 ± 0.46 kg/m3
- mass density (343.13 K, 8000 kPa, x2 = 0.9623): 672.27 ± 0.46 kg/m3
- mass density (343.13 K, 9000 kPa, x2 = 0.9623): 673.35 ± 0.47 kg/m3
- mass density (343.13 K, 10000 kPa, x2 = 0.9623): 674.41 ± 0.47 kg/m3
- mass density (343.13 K, 10990 kPa, x2 = 0.9623): 675.48 ± 0.48 kg/m3
- mass density (343.13 K, 12000 kPa, x2 = 0.9623): 676.54 ± 0.49 kg/m3
- mass density (343.13 K, 13000 kPa, x2 = 0.9623): 677.56 ± 0.49 kg/m3
- mass density (343.13 K, 14000 kPa, x2 = 0.9623): 678.58 ± 0.5 kg/m3
- mass density (343.13 K, 15000 kPa, x2 = 0.9623): 679.6 ± 0.51 kg/m3
- mass density (343.13 K, 16000 kPa, x2 = 0.9623): 680.56 ± 0.51 kg/m3
- mass density (343.13 K, 17000 kPa, x2 = 0.9623): 681.54 ± 0.52 kg/m3
- mass density (343.13 K, 18000 kPa, x2 = 0.9623): 682.46 ± 0.53 kg/m3
- mass density (343.13 K, 19000 kPa, x2 = 0.9623): 683.41 ± 0.53 kg/m3
- mass density (343.13 K, 20000 kPa, x2 = 0.9623): 684.31 ± 0.54 kg/m3
- mass density (343.13 K, 21000 kPa, x2 = 0.9623): 685.19 ± 0.55 kg/m3
- mass density (343.13 K, 22000 kPa, x2 = 0.9623): 686.05 ± 0.56 kg/m3
- mass density (343.13 K, 23000 kPa, x2 = 0.9623): 686.9 ± 0.56 kg/m3
- mass density (343.13 K, 24000 kPa, x2 = 0.9623): 687.72 ± 0.57 kg/m3
- mass density (343.13 K, 25000 kPa, x2 = 0.9623): 688.5 ± 0.58 kg/m3
- mass density (353.08 K, 1000 kPa, x2 = 0.9623): 656.17 ± 0.42 kg/m3
- mass density (353.08 K, 2000 kPa, x2 = 0.9623): 657.39 ± 0.43 kg/m3
- mass density (353.08 K, 3000 kPa, x2 = 0.9623): 658.62 ± 0.43 kg/m3
- mass density (353.08 K, 4000 kPa, x2 = 0.9623): 659.85 ± 0.44 kg/m3
- mass density (353.08 K, 5000 kPa, x2 = 0.9623): 660.99 ± 0.45 kg/m3
- mass density (353.08 K, 6000 kPa, x2 = 0.9623): 662.16 ± 0.45 kg/m3
- mass density (353.08 K, 7000 kPa, x2 = 0.9623): 663.38 ± 0.46 kg/m3
- mass density (353.08 K, 8000 kPa, x2 = 0.9623): 664.55 ± 0.46 kg/m3
- mass density (353.08 K, 9000 kPa, x2 = 0.9623): 665.71 ± 0.47 kg/m3
- mass density (353.08 K, 10000 kPa, x2 = 0.9623): 666.85 ± 0.48 kg/m3
- mass density (353.08 K, 10990 kPa, x2 = 0.9623): 667.94 ± 0.48 kg/m3
- mass density (353.08 K, 12000 kPa, x2 = 0.9623): 669.1 ± 0.49 kg/m3
- mass density (353.08 K, 13000 kPa, x2 = 0.9623): 670.16 ± 0.5 kg/m3
- mass density (353.08 K, 14000 kPa, x2 = 0.9623): 671.22 ± 0.5 kg/m3
- mass density (353.08 K, 15000 kPa, x2 = 0.9623): 672.32 ± 0.51 kg/m3
- mass density (353.08 K, 16000 kPa, x2 = 0.9623): 673.37 ± 0.52 kg/m3
- mass density (353.08 K, 17000 kPa, x2 = 0.9623): 674.4 ± 0.52 kg/m3
- mass density (353.08 K, 18000 kPa, x2 = 0.9623): 675.38 ± 0.53 kg/m3
- mass density (353.08 K, 19000 kPa, x2 = 0.9623): 676.37 ± 0.54 kg/m3
- mass density (353.08 K, 20000 kPa, x2 = 0.9623): 677.3 ± 0.55 kg/m3
- mass density (353.08 K, 21000 kPa, x2 = 0.9623): 678.26 ± 0.55 kg/m3
- mass density (353.08 K, 22000 kPa, x2 = 0.9623): 679.19 ± 0.56 kg/m3
- mass density (353.08 K, 23000 kPa, x2 = 0.9623): 680.04 ± 0.57 kg/m3
- mass density (353.08 K, 24000 kPa, x2 = 0.9623): 680.91 ± 0.58 kg/m3
- mass density (353.08 K, 25000 kPa, x2 = 0.9623): 681.75 ± 0.58 kg/m3
- mass density (353.12 K, 1000 kPa, x2 = 0.0616): 683.44 ± 0.42 kg/m3
- mass density (353.12 K, 1000 kPa, x2 = 0.2801): 678.06 ± 0.42 kg/m3
- mass density (353.12 K, 1000 kPa, x2 = 0.5314): 670.91 ± 0.42 kg/m3
- mass density (353.12 K, 1000 kPa, x2 = 0.7736): 663 ± 0.42 kg/m3
- mass density (353.12 K, 2000 kPa, x2 = 0.0616): 684.54 ± 0.42 kg/m3
- mass density (353.12 K, 2000 kPa, x2 = 0.2801): 679.14 ± 0.42 kg/m3
- mass density (353.12 K, 2000 kPa, x2 = 0.5314): 672.1 ± 0.42 kg/m3
- mass density (353.12 K, 2000 kPa, x2 = 0.7736): 664.25 ± 0.43 kg/m3
- mass density (353.12 K, 3000 kPa, x2 = 0.0616): 685.62 ± 0.42 kg/m3
- mass density (353.12 K, 3000 kPa, x2 = 0.2801): 680.24 ± 0.43 kg/m3
- mass density (353.12 K, 3000 kPa, x2 = 0.5314): 673.23 ± 0.43 kg/m3
- mass density (353.12 K, 3000 kPa, x2 = 0.7736): 665.41 ± 0.43 kg/m3
- mass density (353.12 K, 4000 kPa, x2 = 0.0616): 686.69 ± 0.43 kg/m3
- mass density (353.12 K, 4000 kPa, x2 = 0.2801): 681.31 ± 0.43 kg/m3
- mass density (353.12 K, 4000 kPa, x2 = 0.5314): 674.37 ± 0.43 kg/m3
- mass density (353.12 K, 4000 kPa, x2 = 0.7736): 666.6 ± 0.44 kg/m3
- mass density (353.12 K, 5000 kPa, x2 = 0.0616): 687.76 ± 0.43 kg/m3
- mass density (353.12 K, 5000 kPa, x2 = 0.2801): 682.4 ± 0.44 kg/m3
- mass density (353.12 K, 5000 kPa, x2 = 0.5314): 675.52 ± 0.44 kg/m3
- mass density (353.12 K, 5000 kPa, x2 = 0.7736): 667.77 ± 0.44 kg/m3
- mass density (353.12 K, 6000 kPa, x2 = 0.0616): 688.82 ± 0.44 kg/m3
- mass density (353.12 K, 6000 kPa, x2 = 0.2801): 683.48 ± 0.44 kg/m3
- mass density (353.12 K, 6000 kPa, x2 = 0.5314): 676.65 ± 0.44 kg/m3
- mass density (353.12 K, 6000 kPa, x2 = 0.7736): 668.95 ± 0.45 kg/m3
- mass density (353.12 K, 7000 kPa, x2 = 0.0616): 689.85 ± 0.44 kg/m3
- mass density (353.12 K, 7000 kPa, x2 = 0.2801): 684.52 ± 0.45 kg/m3
- mass density (353.12 K, 7000 kPa, x2 = 0.5314): 677.77 ± 0.45 kg/m3
- mass density (353.12 K, 7000 kPa, x2 = 0.7736): 670.08 ± 0.45 kg/m3
- mass density (353.12 K, 8000 kPa, x2 = 0.0616): 690.88 ± 0.45 kg/m3
- mass density (353.12 K, 8000 kPa, x2 = 0.2801): 685.57 ± 0.45 kg/m3
- mass density (353.12 K, 8000 kPa, x2 = 0.5314): 678.86 ± 0.46 kg/m3
- mass density (353.12 K, 8000 kPa, x2 = 0.7736): 671.21 ± 0.46 kg/m3
- mass density (353.12 K, 9000 kPa, x2 = 0.0616): 691.9 ± 0.45 kg/m3
- mass density (353.12 K, 9000 kPa, x2 = 0.2801): 686.58 ± 0.46 kg/m3
- mass density (353.12 K, 9000 kPa, x2 = 0.5314): 679.93 ± 0.46 kg/m3
- mass density (353.12 K, 9000 kPa, x2 = 0.7736): 672.31 ± 0.47 kg/m3
- mass density (353.12 K, 10000 kPa, x2 = 0.0616): 692.88 ± 0.46 kg/m3

— the NIST ThermoML archive (doi:10.1016/j.jct.2011.08.016)
